Read-outs that look alike come from different tables or passages of the source.
Experiments:
F1F0-ATPase = target: T1, F1F0-ATPase (Bos taurus, UniProt P13621); test: Inhibition of F1F0-ATPase activity in synthesizing ATP (ATP synthesis inhibition); assay type: biochemical; details: detection limit IC50=16 μM, read-out: ATP Syn IC50
T1 construct: from tissue
Protocol: (§1) Exemplary compounds described in above Examples were tested for activity against F1F0-ATPase by measuring the ability of the compounds to inhibit ATP synthesis. In addition, the compounds were assessed for cytotoxicity in Ramos cells. Inhibition of F1F0-ATPase activity in synthesizing ATP and cytotoxicity in Ramos cells were measured according to the procedures described in K. M. Johnson et al. Chemistry & Biology 2005, 12, 485-496.

Ramos cells = test: Cytotoxicity in Ramos cells; assay type: cell-based; details: detection limit EC50=16 μM, read-out: Ramos Cell EC50
Protocol: as §1

Row | SMILES | IC50 (F1F0-ATPase) [µM] | EC50 (Ramos cells) [µM] | EC50 (Ramos cells; Homo sapiens) [µM]
1 | CCn1nc(C)cc1C(=O)/N=C(\Nc1cc(-c2ccc(F)cc2)n[nH]1)NC(C)C [Compound A-54] | < 5 | < 5 | –
2 | CCn1ccc(C(=O)/N=C(\Nc2cc(-c3ccc(F)cc3)n[nH]2)NC(C)C)n1 [Compound A-62] | > 16 | > 16 | –
3 | Cn1cc(C(=O)/N=C(\NCC(C)(C)C)Nc2cc(-c3cc(F)cc(F)c3)n[nH]2)c(C(F)(F)F)n1 [Compound A-31] | < 5 | < 5 | –
4 | Cc1nnsc1C(=O)/N=C(\Nc1cc(-c2ccc(F)cc2)n[nH]1)NC(C)(C)C [Compound A-47] | 5 to 16 | < 5 | –
5 | COC[C@H](C)N/C(=N/C(=O)c1cc(C)nn1C)Nc1cc(-c2cc(F)cc(F)c2)[nH]n1 [Compound A-84] | 5 to 16 | > 16 | –
6 | Cc1oncc1C(=O)/N=C(\Nc1cc(-c2cc(F)cc(F)c2)n[nH]1)NC1(C)CCCC1 [Compound A-95] | < 5 | < 5 | –
7 | Cc1cc(C(=O)/N=C(/NCC(C)C)Nc2cc(-c3cc(F)cc(F)c3)n[nH]2)n(C)n1 [Compound A-83] | < 5 | 5 to 16 | –
8 | Cn1nc(C(C)(C)C)cc1C(=O)N/C(=N/c1cccc(O)n1)Nc1cc(F)cc(Cl)c1 [Compound A-235] | < 5 | – | < 5
9 | CC(C)(C)N/C(=N/C(=O)c1nccs1)Nc1cc(C(F)(F)F)n[nH]1 [Compound A-35] | < 5 | 5 to 16 | –
10 | CCC(C)N/C(=N\C(=O)c1cn(C)nc1C(F)(F)F)Nc1cc(-c2cc(F)cc(F)c2)n[nH]1 (stereo not shown) [Compound A-33] | < 5 | < 5 | –
11 | CC(C)CNC(=NC(=O)c1cn(C)nc1C(F)(F)F)Nc1cc(-c2cc(O)ccc2Cl)n[nH]1 [Compound A-182] | < 5 | – | 5 to 16

Now from value to compound, other results behind:

Row | IC50 (F1F0-ATPase) [µM] | SMILES | EC50 (Ramos cells) [µM] | EC50 (Ramos cells; Homo sapiens) [µM]
12 | < 5 | COc1ccc(-c2cc(N/C(=N\C(=O)c3cn(C)nc3C(F)(F)F)Nc3cccc(F)c3)[nH]n2)cc1F [Compound A-157] | 5 to 16 | –
13 | 5 to 16 | CCOCCCN/C(=N/C(=O)c1cnoc1C)Nc1cc(-c2ccc(C)c(F)c2)n[nH]1 [Compound A-106] | > 16 | –
14 | < 5 | Cn1cc(C(=O)N=C(Nc2cc(-c3ccc(O)c(F)c3)n[nH]2)Nc2ccccc2Cl)c(C(F)(F)F)n1 [Compound A-171] | – | < 5
15 | 5 to 16 | COc1ccc(-c2cc(N/C(=N\C(=O)c3cn(C)nc3C(F)(F)F)Nc3ccccc3C(F)(F)F)[nH]n2)cc1F [Compound A-159] | > 16 | –
16 | < 5 | Cc1ccc(-c2cc(N/C(=N\C(=O)c3cnoc3C)NC3CCC3)[nH]n2)cc1F [Compound A-94] | 5 to 16 | –
17 | > 16 | CCOCCCN/C(=N/C(=O)c1cnoc1C)Nc1cc(-c2ccc(F)cc2)n[nH]1 [Compound A-105] | > 16 | –
